Measured values as given in the supplement of paper PMC4862054.

Columns and labels:
Test in all cases: normalised response (% of control), CellTiter-Glo; higher = more viable cells (100 = DMSO, 0 = benzethonium chloride kill control)
Details in all cases: incubation time: 72 h
[1] = system: BT-549
Procedure: (§1)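 DSRT, 72 h incubation, CellTox Green / CellTiter-Glo readout. Signal is normalised to DMSO and benzethonium chloride controls. Value is the normalised response at the highest dose.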

[2] = system: CAL-120
Procedure: as §1

[3] = system: CAL-51
Procedure: as §1

[4] = system: HCC1143
Procedure: as §1

[5] = system: HCC1599
Procedure: as §1

[6] = system: HCC1937
Procedure: as §1

[7] = system: HDQ-P1
Procedure: as §1

[8] = system: Hs578T
Procedure: as §1

[9] = system: MCF-10A
Procedure: as §1

[10] = system: MDA-MB-231
Procedure: as §1

[11] = system: MDA-MB-453
Procedure: as §1

[12] = system: MFM-223
Procedure: as §1

Row | Compound | normalised response [1] [%] | normalised response [2] [%] | normalised response [3] [%] | normalised response [4] [%] | normalised response [5] [%] | normalised response [6] [%] | normalised response [7] [%] | normalised response [8] [%] | normalised response [9] [%] | normalised response [10] [%] | normalised response [11] [%] | normalised response [12] [%]
1 | CN1CCC(COc2cnc(-c3cccc(Cn4nc(-c5cccc(C#N)c5)ccc4=O)c3)nc2)CC1 (1000 nM) | 91.9 | 96.1 | 110 | 97.8 | 85.6 | 84 | 99.6 | 95.2 | 89.3 | 104 | 84 | 84.9
2 | CN(C)C/C=C/C(=O)Nc1cc2c(Nc3ccc(F)c(Cl)c3)ncnc2cc1O[C@H]1CCOC1 [Afatinib] (1000 nM) | 89.1 | 93.5 | 96.4 | 97.2 | 108 | 89.8 | 64.3 | 94.5 | 35.1 | 83.4 | 63.3 | 93
3 | CN1CC[C@H](c2c(O)cc(O)c3c(=O)cc(-c4ccccc4Cl)oc23)[C@H](O)C1 [Alvocidib] (10000 nM) | 5.51 | 37 | 15.7 | 17 | 13.9 | 26.2 | 26.2 | 7.68 | 7.83 | 3.28 | 18.1 | 10
4 | Nc1nc(Cl)nc2c1ncn2[C@H]1C[C@H](O)[C@@H](CO)O1 [Cladribine] (1000 nM) | 39.6 | 79 | 124 | 92 | 61.2 | 82.8 | 89.2 | 102 | 102 | 88.4 | 126 | 109
5 | Nc1ccn([C@@H]2O[C@H](CO)[C@@H](O)[C@@H]2O)c(=O)n1 [Cytarabine] (10000 nM) | 56.6 | 88.1 | 25.4 | 55.9 | 69.8 | 76.5 | 77.4 | 77.9 | 71.3 | 79.6 | 76.4 | 106
6 | Cc1c2oc3c(C)ccc(C(=O)N[C@@H]4C(=O)N[C@H](C(C)C)C(=O)N5CCC[C@H]5C(=O)N(C)CC(=O)N(C)[C@@H](C(C)C)C(=O)O[C@@H]4C)c3nc-2c(C(=O)N[C@@H]2C(=O)N[C@H](C(C)C)C(=O)N3CCC[C@H]3C(=O)N(C)CC(=O)N(C)[C@@H](C(C)C)C(=O)O[C@@H]2C)c(N)c1=O [Dactinomycin] (1000 nM) | 1.88 | 33.1 | 9.31 | 11.3 | 7.78 | 25.2 | 24.8 | 3.61 | 2.65 | 2.02 | 16.7 | 11.9
7 | COc1cccc2c1C(=O)c1c(O)c3c(c(O)c1C2=O)C[C@@](O)(C(=O)CO)C[C@@H]3O[C@H]1C[C@H](N)[C@H](O)[C@H](C)O1 [Doxorubicin] (1000 nM) | 14.9 | 43.4 | 23.7 | 46.2 | 33.2 | 51.4 | 46.7 | 45.6 | 44 | 29 | 20.7 | 72.6
8 | Cc1ccc(F)c(NC(=O)Nc2ccc(-c3cccc4[nH]nc(N)c34)cc2)c1 [Linifanib] (1000 nM) | 103 | 109 | 91.6 | 108 | 105 | 103 | 115 | 101 | 106 | 109 | 110 | 108
9 | S=c1[nH]cnc2nc[nH]c12 [Mercaptopurine] (10000 nM) | 94.8 | 27.3 | 80.5 | 101 | 27.5 | 31.8 | 35.9 | 47.3 | 95.3 | 40.7 | 102 | 85.5
10 | Clc1ccc(C(c2ccccc2Cl)C(Cl)Cl)cc1 (stereo not drawn) [Mitotane] (10000 nM) | 95.6 | 99.2 | 64.2 | 98.7 | 113 | 94.9 | 99.8 | 102 | 102 | 94.9 | 94.9 | 97
11 | COc1cccc2cc(-c3nc([C@H]4CC[C@H](C(=O)O)CC4)n4ncnc(N)c34)[nH]c12 [OSI-027] (10000 nM) | 24.8 | 30.1 | 38 | 46.5 | 74.2 | 47.6 | 37.5 | 33.4 | 30.5 | 45.7 | 32.2 | 28.5
12 | OC[C@H]1O[C@@H](n2cnc3c2N=CNC[C@H]3O)C[C@@H]1O [Pentostatin] (10000 nM) | 92.5 | 101 | 90.2 | 99.1 | 108 | 98.9 | 98.1 | 98 | 106 | 103 | 110 | 99.3
13 | N#CC[C@H](C1CCCC1)n1cc(-c2ncnc3[nH]ccc23)cn1 [Ruxolitinib] (10000 nM) | 101 | 77.7 | 88.9 | 93.3 | 94.4 | 96.9 | 86.3 | 102 | 72.5 | 86 | 87.6 | 73.2
14 | C=CC[C@@H]1/C=C(\C)C[C@H](C)C[C@H](OC)[C@H]2O[C@@](O)(C(=O)C(=O)N3CCCC[C@H]3C(=O)O[C@H](/C(C)=C/[C@@H]3CC[C@@H](O)[C@H](OC)C3)[C@H](C)[C@@H](O)CC1=O)[C@H](C)C[C@@H]2OC [Tacrolimus] (10000 nM) | 90.8 | 105 | 104 | 86.8 | 119 | 94.3 | 103 | 94.5 | 103 | 91.5 | 101 | 81.2
15 | C=CCNC1=C2C[C@@H](C)C[C@H](OC)[C@H](O)[C@@H](C)/C=C(\C)[C@H](OC(N)=O)[C@@H](OC)/C=C\C=C(/C)C(=O)NC(=CC1=O)C2=O [Tanespimycin] (10000 nM) | 35.5 | 42.3 | 14.9 | 32.6 | 54.5 | 34 | 20.7 | 34.2 | 14 | 15.5 | 28.6 | 38.1
16 | CO[C@H]1C[C@@H]2CC[C@@H](C)[C@@](O)(O2)C(=O)C(=O)N2CCCC[C@H]2C(=O)O[C@H]([C@H](C)C[C@@H]2CC[C@@H](OC(=O)C(C)(CO)CO)[C@H](OC)C2)CC(=O)[C@H](C)/C=C(\C)[C@@H](O)[C@@H](OC)C(=O)[C@H](C)C[C@H](C)/C=C/C=C/C=C/1C [Temsirolimus] (100 nM) | 56.3 | 65.4 | 61 | 65.2 | 90.8 | 66.8 | 77.9 | 67.1 | 88.6 | 90.2 | 58.9 | 67.7
17 | C[C@]1(c2nc3c(C(N)=O)cccc3[nH]2)CCCN1 [Veliparib] (10000 nM) | 95.7 | 93.1 | 96.1 | 91.6 | 77.1 | 93.6 | 102 | 98.9 | 97.3 | 93.3 | 121 | 97.3
18 | CC[C@]1(O)C[C@@H]2CN(CCc3c([nH]c4ccccc34)[C@@](C(=O)OC)(c3cc4c(cc3OC)N(C)[C@H]3[C@@](O)(C(=O)OC)[C@H](OC(C)=O)[C@]5(CC)C=CCN6CC[C@]43[C@@H]65)C2)C1 [Vinblastine] (1000 nM) | 34.3 | 59.1 | 23.9 | 50.2 | 12.6 | 69.3 | 70.6 | 15.3 | 71.6 | 43.4 | 64.7 | 44.6
19 | CS(=O)(=O)c1ccc(C(=O)Nc2ccc(Cl)c(-c3ccccn3)c2)c(Cl)c1 [Vismodegib] (10000 nM) | 102 | 99.3 | 97.8 | 89.9 | 88.8 | 90 | 91.7 | 99.5 | 93.9 | 98 | 87.9 | 91.4
